Here are results for one compound from US9486457B2, “Use of cinnabarinic acid as a modulator of immune responses in autoimmune disorders” (The Regents of the University of California, priority 2010, dated 2016).

Series [1] has as its system lymphocytes. Kind of series: CYP1A1 transcription within lymphocytes. The class given is cell-based. The text has this: (§1) 3-HAA is particularly susceptible to oxidation, resulting in the formation of the metabolite cinnabarinic acid (CA) through dimerization of two molecules of 3-HAA (24). […] In addition, CA has potent effects on thymocyte maturation (25) not unlike what has been observed in rodents treated with TCDD (26-28) or in transgenic mice with a constitutively active AHR (29). To test the hypothesis that CA is an AHR ligand, we obtained pure CA, prepared through a chemical synthesis using 3-HAA as a starting material and purified by HPLC, and analyzed its ability to bind to and activate the AHR in vitro.

Series [2] concerns the target T1, human AHR protein (Homo sapiens, UniProt P35869).
T1 sequence (P35869 11-848): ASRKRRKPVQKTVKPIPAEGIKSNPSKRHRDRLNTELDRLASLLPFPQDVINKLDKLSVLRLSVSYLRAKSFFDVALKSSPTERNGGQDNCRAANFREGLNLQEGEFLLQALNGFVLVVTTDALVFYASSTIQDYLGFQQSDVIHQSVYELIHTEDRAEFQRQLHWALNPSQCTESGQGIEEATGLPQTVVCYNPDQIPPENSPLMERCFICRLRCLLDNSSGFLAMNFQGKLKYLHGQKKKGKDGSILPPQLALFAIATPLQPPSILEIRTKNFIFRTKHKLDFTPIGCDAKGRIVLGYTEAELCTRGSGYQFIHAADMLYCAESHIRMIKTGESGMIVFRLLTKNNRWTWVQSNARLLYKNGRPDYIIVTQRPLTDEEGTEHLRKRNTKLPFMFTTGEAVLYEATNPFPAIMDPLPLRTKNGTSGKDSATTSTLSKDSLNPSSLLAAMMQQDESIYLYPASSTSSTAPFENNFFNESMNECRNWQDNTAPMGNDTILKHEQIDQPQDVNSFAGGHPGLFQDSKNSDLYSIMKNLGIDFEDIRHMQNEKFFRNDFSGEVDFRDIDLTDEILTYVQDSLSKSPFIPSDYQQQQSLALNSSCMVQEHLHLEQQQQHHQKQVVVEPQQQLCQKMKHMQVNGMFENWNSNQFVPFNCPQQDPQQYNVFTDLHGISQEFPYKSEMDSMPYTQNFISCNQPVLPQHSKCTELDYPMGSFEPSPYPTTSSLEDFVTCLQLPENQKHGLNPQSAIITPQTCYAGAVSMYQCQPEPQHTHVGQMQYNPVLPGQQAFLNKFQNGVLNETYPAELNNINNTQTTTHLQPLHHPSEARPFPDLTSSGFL
Briefly: Displacement of TCDD binding to in vitro translated human AHR protein. Particulars: cell-free. The text has this: (§2) We performed a precursory screen of all tryptophan metabolites including both 3-HKA and 3-HAA to bind to and act as agonists or antagonists of the AHR using two separate assays. First we examined the ability of 3-HKyn, 3-HAA, and PA to displace TCDD binding to the human AHR protein in vitro (20). […] We also measured AHR activation using a mouse hepatoma cell line (H1G1) that stably expresses a green fluorescent protein (GFP) reporter construct downstream of a series of dioxin responsive elements (FIG. 7A) (21).

For series [3], the system named is experimental allergic encephalomyelitis (EAE). Kind of series: Experimental allergic/autoimmune encephalomyelitis (EAE) induced with MOG peptide and CFA. The class given is in vivo, C57BL/6 mice. Particulars: for development / induction of EAE (disease occurrence and severity): single dose (1 mg/mouse) at Day 0 within the emulsion containing MOG peptide and adjuvant, compared to DMSO. The method, then: FIGS. 10A and 10B illustrate the number or frequency of cytokine producing cells within the CNS (or spleen) of mice treated at day 0 with 1 dose of CA (1 mg/mouse) or vehicle (DMSO) within the emulsion contain MOG peptide and adjuvant. Representative flow plots are shown at the bottom of the figures. EAE survival curve for 10 animals treated with CA or with DMSO showing that 1/10 animals treated with CA gets sick whereas 9/10 animals treated with vehicle (DMSO) are sick at the indicated timepoint.
However, TCDD and FICZ are both known AHR agonists, like CA, whereas 3,4 DAA appears to act as an antagonist. Therefore the regulation of the Th17/Th22/Treg cell differentiation pathways at the level of the AHR is likely to be more complex than merely reflecting the presence of an agonistic or antagonistic ligand. To assess whether CA was protective in EAE we performed a series of experiments in which CA was administered in a single dose (1 mg/mouse) contained within the emulsion used to induce disease.

Series [4] concerns naïve (CD45RA+CCR7+CD95−CD25−) CD4+ T cells. Briefly: Foxp3 induction in stimulated naïve CD4+ T cells. The class given is cell-based, human. Conditions: stimulated naïve CD4+ T cells in vitro. The text has this: FIG. 9: The synthetic 3-HAA analogue 3,4 DAA (Tranilast) is an AhR antagonist and promotes the induction of Foxp3 by stimulated CD4+ T cells. (A) 3,4 DAA shares some structural similarities to 3-HAA (highlighted region).
Therefore we asked whether T cells treated with 3,4 DAA might be prompted to differentiate into Treg cells through upregulation of the transcription factor Foxp3 (26).

Series [5] has as its system zebrafish embryos. Kind of series: CYP1A1 induction in zebrafish embryos. Particulars: within 72 hours. The class given is in vivo.
Source text: as §1

Series [6] concerns human naïve CD4+ T cells. Kind of series: IL-22 induction in cultured human naïve CD4+ T cells stimulated with anti-CD3/anti-CD28 under Th17 polarizing conditions. The class given is cell-based. Conditions: CA 25 μM in FIG. 8D. The text has this: This is AHR dependent as inclusion of an AHR antagonist fully abrogated effect.
FIG. 8: CA is an endogenous AhR agonist generated by oxidative dimerization of 3-HAA. (A) An alternative pathway of 3-HAA metabolism leads to the generation of CA either by non-enzymatic (oxidation) or enzymatic (laccase, ceruloplasmin) processes. CA is structurally similar to the synthetic AhR ligand TCDD. […] Data are representative of three similar experiments.

Series [7] deals with T2, AHR (Mus musculus, UniProt P30561).
T2 construct: murine hepatoma cell line stably transfected with an AhR-responsive (AhR-eGFP) reporter construct; endogenous in cells
T2 sequence (P30561 10-848): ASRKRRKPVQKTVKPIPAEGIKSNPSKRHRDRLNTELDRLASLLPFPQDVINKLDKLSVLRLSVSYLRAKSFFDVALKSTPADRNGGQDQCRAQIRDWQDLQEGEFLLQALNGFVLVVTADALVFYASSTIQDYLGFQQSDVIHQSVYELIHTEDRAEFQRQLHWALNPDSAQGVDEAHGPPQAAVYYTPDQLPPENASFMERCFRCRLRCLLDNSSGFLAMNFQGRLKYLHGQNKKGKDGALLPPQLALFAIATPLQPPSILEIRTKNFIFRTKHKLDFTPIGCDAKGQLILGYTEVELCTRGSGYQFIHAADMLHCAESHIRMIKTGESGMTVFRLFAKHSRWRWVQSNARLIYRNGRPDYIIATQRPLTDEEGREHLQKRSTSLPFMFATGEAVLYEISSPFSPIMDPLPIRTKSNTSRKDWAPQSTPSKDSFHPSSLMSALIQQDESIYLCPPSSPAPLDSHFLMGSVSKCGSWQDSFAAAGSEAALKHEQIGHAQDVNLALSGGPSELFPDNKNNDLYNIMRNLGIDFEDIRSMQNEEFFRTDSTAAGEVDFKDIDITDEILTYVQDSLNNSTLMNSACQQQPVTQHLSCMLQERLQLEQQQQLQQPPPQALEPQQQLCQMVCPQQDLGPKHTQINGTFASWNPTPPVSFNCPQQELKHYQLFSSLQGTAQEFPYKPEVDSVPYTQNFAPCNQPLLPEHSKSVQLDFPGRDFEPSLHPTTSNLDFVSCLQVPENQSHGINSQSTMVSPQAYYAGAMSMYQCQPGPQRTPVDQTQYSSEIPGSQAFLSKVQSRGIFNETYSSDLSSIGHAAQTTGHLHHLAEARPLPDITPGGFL
Briefly: AHR-responsive (dioxin responsive element) GFP reporter assay in H1G1 mouse hepatoma cells. In kind it is cell-based. Conditions: agonist mode.
Source text: as §2
In general terms: A reporter such as luciferase makes a cellular process visible.

Where [8] appears, read: single dose 1 mg/mouse in the emulsion.

Structures are written as SMILES. “Also recorded” adds a separate entry of the source.

In the case of `Nc1c(C(=O)O)c2nc3c(C(=O)O)cccc3oc-2cc1=O` [Cinnabarinic Acid, cinnabarinic acid], the CYP1A1 transcription result in series [1] was “upregulation of CYP1A1 transcription within lymphocytes”. For the same compound, the “displacement / inhibition of TCDD binding to human AHR” value in series [2] was “displaces Dioxin (TCDD)”; in series [2] (listed as CA), “able to bind to and activate the AHR at much lower concentrations than that observed for 3-HAA; also recorded: dose-dependent inhibition of TCDD binding”. Moreover, in series [3] (10 animals, 1 dose of CA (1 mg/mouse) at day 0, 9/10 with vehicle (DMSO)), the “animals that get sick (EAE survival curve)” value is listed as 1/10. Besides, the “Foxp3+ Treg cells in the CNS” value in series [3] (setting [8]) is listed as “but not in the CNS”. Also, the “Foxp3+ Treg cells in the spleen” value in series [3] (setting [8]) is “slight, but significant, increase in Foxp3+ Treg cells in the spleen”. Moreover, in series [3] (setting [8]), the “frequency and number of Th17 and Th22 cells in the spleen” value was “increase in the frequency and number of Th17 and Th22 cells in the spleen”. Also, the “frequency of infiltrating Th17 and Th22 cells in the CNS” value in series [3] (setting [8]) is “decrease in the frequency of infiltrating Th17 and Th22 cells”. Moreover, the “number of infiltrating T cells in the central nervous system (CNS)” value in series [3] (setting [8]) is reported as “greatly reduced number of infiltrating T cells in the central nervous system (CNS)”. Moreover, the “development / induction of EAE (disease occurrence and severity)” value in series [3] was “inhibits the development of experimental allergic encephalomyelitis (EAE); also recorded: inhibits the induction of EAE”; in series [3] (listed as CA), “suppress autoimmunity in a mouse model of multiple sclerosis; also recorded: significant reduction of disease occurrence and severity; also recorded: almost completely block the development of EAE”; in series [3] (listed as Cinnabaric Acid), “inhibits the induction of EAE”. Moreover, in series [3] (splenocytes from CA treated mice), the “proliferation of splenocytes on restimulation with MOG peptide” value was “significantly greater amount of proliferation”. For the same compound, the “Foxp3 expression (frequency of CD4+Foxp3+ T cells)” value in series [4] is given as “did not appear to promote Foxp3 upregulation”. In addition, in series [5], the CYP1A1 induction result was “potent induction of CYP1A1 in zebrafish embryos”. Moreover, the IL-22 induction result in series [6] is “potently induces IL-22”; in series [6] (listed as CA), “stimulate the differentiation of a newly defined subset of human T cells that produce the cytokine IL-22; also recorded: promoted IL-22 production more strongly than any other tryptophan metabolite tested; also recorded: potently induces IL-22”. Also, the “AHR agonist activity (activation of AHR-responsive reporter)” value was “activates AHR responsive (Dioxin Responsive Elements)” in series [7]; “able to bind to and activate the AHR at much lower concentrations than that observed for 3-HAA; also recorded: potent agonist of the AhR” in series [7] (listed as CA).
